Counter-ions that a name gives are not always drawn. ± gives the standard deviation of the averaged measurements.
Test system: HepaRG
Experiment: LDH release cytotoxicity, % of total lysis control; higher = more cytotoxic
Settings: 48 h
Summary of the method: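 Duplicate wells of single-lot HepaRG cells, grown on collagen I-coated 96-well plates, received eight-point half-log series of test chemicals with 100 µM as the top concentration. Exposure lasted 48 h in serum-free induction medium with 0.5% DMSO, while total lysis wells received 0.1% Triton X. Resorufin fluorescence (CytoTox-ONE, Tecan Safire) was used to quantify LDH leaked into 50 µL of spent medium. Values for percent cytotoxicity were normalized to on-plate vehicle and total lysis controls and averaged across the duplicates.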

Nc1ccn(C2OC(CO)C(O)C2O)c(=O)n1 (centres undefined) [Cytarabine hydrochloride]
Settings | LDH release cytotoxicity [%]
0.03162 µM | -0.941 ± 0.69
0.1 µM | -1.96 ± 0.65
0.3162278 µM | -0.891 ± 0.29
1 µM | -1.56 ± 0.86
3.16228 µM | -0.827 ± 0.49
10 µM | 0.301 ± 1.5
31.6228 µM | 1.76 ± 1.2
100 µM | 4.47 ± 2.3

CC1=NC(=S)NC(=O)C1 [6-Methyl-2-thiouracil]
Settings | LDH release cytotoxicity [%]
0.03162 µM | -1.61 ± 0.11
0.1 µM | -0.548 ± 0.32
0.3162278 µM | 0.567 ± 0.55
1 µM | 0.268 ± 0.56
3.16228 µM | 0.0334 ± 0.84
10 µM | 0.892 ± 0.68
31.6228 µM | 0.733 ± 1.8
100 µM | 0.731 ± 1.2

CSc1nnc(C(C)(C)C)c(=O)n1N [Metribuzin]
Settings | LDH release cytotoxicity [%]
0.03162 µM | -0.754 ± 0.83
0.1 µM | 0.58 ± 1
0.3162278 µM | -0.959 ± 0.2
1 µM | -1.09 ± 0.56
3.16228 µM | -1.24 ± 0.2
10 µM | -0.985 ± 0.14
31.6228 µM | -0.751 ± 0.37
100 µM | 0.317 ± 0.26

CCNc1nc(Cl)nc(NC(C)(C)C#N)n1 [Cyanazine]
Settings | LDH release cytotoxicity [%]
0.03162 µM | -0.628 ± 0.49
0.1 µM | -0.139 ± 1.2
0.3162278 µM | -0.711 ± 0.36
1 µM | -1.27 ± 0.13
3.16228 µM | -0.482 ± 0.15
10 µM | -0.431 ± 0.068
31.6228 µM | -0.343 ± 0.24
100 µM | 0.714 ± 0.2

NC(=O)N=NCc1ccc([N+](=O)[O-])o1 [Nitrofurazone]
Settings | LDH release cytotoxicity [%]
0.03162 µM | -0.299 ± 0.59
0.1 µM | -1.51 ± 0.4
0.3162278 µM | -1.48 ± 0.51
1 µM | -1.87 ± 0.52
3.16228 µM | -1.76 ± 0.92
10 µM | -0.788 ± 0.29
31.6228 µM | -0.997 ± 0.33
100 µM | 0.128 ± 0.43

Oc1ccc(Cl)cc1Cl [2,4-Dichlorophenol]
Settings | LDH release cytotoxicity [%]
0.03305 µM | -0.867 ± 0.13
0.1045 µM | -1.22 ± 0.36
0.330458 µM | -1.99 ± 0.46
1.045 µM | -1.67 ± 0.36
3.30458 µM | -1.98 ± 0.042
10.45 µM | -1.68 ± 0.079
33.0458 µM | -2.38 ± 0.071
104.5 µM | -0.904 ± 0.016

CCCN(CCOc1c(Cl)cc(Cl)cc1Cl)C(=O)n1ccnc1 [Prochloraz]
Settings | LDH release cytotoxicity [%]
0.031623 µM | 0.136 ± 1.1
0.1 µM | -2.541 ± 0.013
0.316228 µM | -3.11 ± 1.4
1 µM | -2.56 ± 0.4
3.16228 µM | -0.716 ± 0.26
10 µM | -0.855 ± 0.78
31.6228 µM | 13.7 ± 0.66
100 µM | 64.6 ± 0.66

C=CC1(C)OC(=O)N(c2cc(Cl)cc(Cl)c2)C1=O (centres undefined) [Vinclozolin]
Settings | LDH release cytotoxicity [%]
0.031623 µM | -0.342 ± 2.7
0.1 µM | -2.45 ± 0.46
0.316228 µM | -2.11 ± 1.4
1 µM | -1.77 ± 2.5
3.16228 µM | -1.59 ± 1.1
10 µM | -1.87 ± 1.3
31.6228 µM | -1.19 ± 0.41
100 µM | 0.481 ± 0.36

CN1COCN(Cc2cnc(Cl)s2)C1=N[N+](=O)[O-] [Thiamethoxam]
Settings | LDH release cytotoxicity [%]
0.03162 µM | -0.296 ± 0.14
0.1 µM | -1.13 ± 0.85
0.3162278 µM | -0.0609 ± 0.4
1 µM | -1.83 ± 0.5
3.16228 µM | -1.49 ± 0.41
10 µM | 0.119 ± 1.6
31.6228 µM | -1.01 ± 0.87
100 µM | 0.102 ± 1.4

C=C(C)CN(CC)c1c([N+](=O)[O-])cc(C(F)(F)F)cc1[N+](=O)[O-]
Settings | LDH release cytotoxicity [%]
0.03162 µM | 0.288 ± 0.69
0.1 µM | -0.786 ± 0.58
0.3162278 µM | -0.775 ± 0.099
1 µM | -1.3 ± 0.21
3.16228 µM | -0.72 ± 0.57
10 µM | -0.92 ± 0.68
31.6228 µM | -0.439 ± 0.064
100 µM | 0.333 ± 0.038

OCCOCCOCCO [Triethylene glycol]
Settings | LDH release cytotoxicity [%]
0.03162 µM | -0.151 ± 1
0.1 µM | -1.04 ± 0.017
0.3162278 µM | -0.871 ± 0.11
1 µM | -1.23 ± 0.56
3.16228 µM | -1.32 ± 0.055
10 µM | -0.871 ± 0.14
31.6228 µM | -1.1 ± 0.18
100 µM | 0.204 ± 0.36

CC(C)[O-].CC(C)[O-].[O-]CCN(CCO)CCO.[O-]CCN(CCO)CCO.[Ti+4] [Isopropyl triethanolamine titanate]
Settings | LDH release cytotoxicity [%]
0.03162 µM | -5.22 ± 4.5
0.1 µM | -1.09 ± 0.96
0.3162278 µM | -0.881 ± 0.2
1 µM | -0.333 ± 0.037
3.16228 µM | 0.622 ± 0.39
10 µM | 0.156 ± 1.4
31.6228 µM | 0.0089 ± 0.55
100 µM | 0.6851 ± 0.0067

CCCC(=O)OCC [Ethyl butyrate]
Settings | LDH release cytotoxicity [%]
0.03162 µM | -2.73 ± 0.033
0.1 µM | -1.76 ± 1.1
0.3162278 µM | -1.67 ± 0.64
1 µM | -2.36 ± 0.58
3.16228 µM | -1.92 ± 0.24
10 µM | -0.558 ± 0.26
31.6228 µM | 0.726 ± 0.71
100 µM | 0.69 ± 0.89

COC(=O)N(C(=O)N1COC2(C(=O)OC)Cc3cc(Cl)ccc3C2=N1)c1ccc(OC(F)(F)F)cc1 (centres undefined) [Indoxacarb]
Settings | LDH release cytotoxicity [%]
0.0253 µM | -0.813 ± 0.062
0.08 µM | 0.513 ± 0.93
0.252982 µM | -1.47 ± 0.66
0.8 µM | -0.957 ± 0.72
2.52982 µM | -0.16 ± 1.7
8 µM | -0.511 ± 0.2
25.2982 µM | 0.453 ± 1.4
80 µM | 14.2 ± 2.2

CC(=O)OCCOCCOCCOC(C)=O [Triethylene glycol diacetate]
Settings | LDH release cytotoxicity [%]
0.03162 µM | -2
0.1 µM | -1.98 ± 0.077
0.3162278 µM | -1.83 ± 0.78
1 µM | -1.55 ± 0.41
3.16228 µM | 0.0849 ± 2
10 µM | -1.35 ± 0.28
31.6228 µM | -0.553 ± 0.033
100 µM | 1.55 ± 0.07

c1ccc(C2CO2)cc1 (centres undefined) [Styrene oxide]
Settings | LDH release cytotoxicity [%]
0.03162 µM | -1.36 ± 0.96
0.1 µM | -1.15 ± 0.44
0.3162278 µM | -1.2 ± 0.66
1 µM | -1.64 ± 0.41
3.16228 µM | -1.36 ± 0.55
10 µM | -0.823 ± 1.1
31.6228 µM | -0.175 ± 0.79
100 µM | 0.415 ± 0.9

O=C1CCCCCN1 [Caprolactam]
Settings | LDH release cytotoxicity [%]
0.03162 µM | -0.496 ± 0.65
0.1 µM | -1.92 ± 0.24
0.3162278 µM | -1.76 ± 0.37
1 µM | -0.953 ± 0.14
3.16228 µM | -0.455 ± 0.46
10 µM | -0.823 ± 0.29
31.6228 µM | -0.101 ± 0.44
100 µM | 1.84 ± 0.57

COC(=O)NC(=S)Nc1ccccc1NC(=S)NC(=O)OC [Thiophanate-methyl]
Settings | LDH release cytotoxicity [%]
0.03162 µM | -1.04 ± 0.2
0.1 µM | -0.552 ± 0.3
0.3162278 µM | -0.928 ± 0.03
1 µM | -1.83 ± 0.058
3.16228 µM | -0.882 ± 0.41
10 µM | 0.238 ± 0.4
31.6228 µM | 0.796 ± 0.9
100 µM | 8.47 ± 0.31

Source: the supplement of paper PMC7840683
